Laboratory results reported in patent US9023821B2, “Use of MicroRNA for treating diseases associated with a dysfunction of the cilia in multiciliated epithelial cells” (Centre National de la Recherche Scientifique, priority 2009, dated 2015).

Tested on: human airway epithelial cells (HAECs)
Test: High-throughput sequencing (HTS) of miRNAs at four stages of differentiation of HAECs
Conditions: for Modulation (ratio of the level of intensity of expression in log2 in two stages of differentiation), D7 − D0 / Modulation (ratio of the level of intensity of expression in log2 in two stages of differentiation), FC − D7 / Modulation (ratio of the level of intensity of expression in log2 in two stages of differentiation), WD − D0 / Modulation (ratio of the level of intensity of expression in log2 in two stages of differentiation), WD − FC / Abundance (%), D0 / Level of intensity of expression in log2, D0 / Abundance (%), D7 / Level of intensity of expression in log2, D7 / Abundance (%), FC / Level of intensity of expression in log2, FC / Abundance (%), WD / Level of intensity of expression in log2, WD: HTS; for Abundance (%), D0: ALI-D0; for Level of intensity of expression in log2, D0: ALI-D0 (proliferation); for Abundance (%), D7: ALI-D7; for Level of intensity of expression in log2, D7: ALI-D7 (proliferation and polarization); for Abundance (%), FC: ALI-FC; for Level of intensity of expression in log2, FC: ALI-FC (start of ciliogenesis); for Abundance (%), WD: ALI-WD; for Level of intensity of expression in log2, WD: ALI-WD (wholly differentiated epithelium); for Level of intensity of expression in log2 At the differentiated stage (WD) measured in HTS: healthy human airway epithelial tissue
Source text: The total RNAs were extracted from HAECs cultivated at the air-liquid interface at four stages of differentiation: ALI-D0 (0 day), ALI-D7 (7 days), ALI-FC (during appearance of the first cilia at about 14 days) and ALI-WD (wholly differentiated at about 21 days). The cells are lysed in reagent with Trizol® (Invitrogen). The total RNAs containing small RNAs and microRNAs are purified on Qiagen RNEasy columns (Qiagen) according to the supplier's instructions.
The total RNAs containing small RNAs and microRNAs are isolated as before. The procedure is based on the Applied Biosystems Ligase-Enhanced Genome Detection technology (LEGenD™); the SOLiD™ Small RNA Expression kit (Applied Biosystems, France) was used. With this method it is possible to convert the small RNAs of a sample into a library of double-stranded DNA; it was developed by Applied Biosystems SOLiD™ System for a new generation of high-throughput sequencing.
The high-throughput sequencing of the microRNAs was carried out according to the supplier's recommendations. Briefly, the total RNAs containing the small RNAs are hybridized (65° C., 10 min, then at 16° C., 5 min) and ligated (16° C., 2-16 h in a thermocycler) with the Adaptor Mix A for producing a matrix for sequencing the 5′ end of the small RNAs, or with the Adaptor Mix B for sequencing the 3′ end. The samples are then reverse-transcribed (42° C., 30 min) to synthesize the complementary DNA (cDNA). The library of small RNAs is amplified by PCR and after migration on polyacrylamide gel the amplified small RNAs are cut out and extracted from the gel according to their size (length of about 105-150 bases, according to the supplier's instructions), eluted and resuspended in nuclease-free water. The concentration of nucleic acids is then measured and normalized before proceeding with preparation of the samples for sequencing.
For each microRNA sequenced, the number of sequences of the 5p strand and of the 3p strand of the microRNA was normalized to 10^6 sequences and converted to percentage abundance of expression for each of the microRNAs. The data were then normalized according to a linear model and an empirical Bayesian method using software R. For subsequent analyses, only the microRNAs were retained for which the percentage expression (or abundance) is greater than 1% of the total of the microRNAs in at least one culture condition, with a |Log2 Ratio| below 0.5 and an adjusted P-value below 0.05.

Substance	Modulation (ratio of the level of intensity of expression in log2 in two stages of differentiation), D7 − D0	Modulation (ratio of the level of intensity of expression in log2 in two stages of differentiation), FC − D7	Modulation (ratio of the level of intensity of expression in log2 in two stages of differentiation), WD − D0	Modulation (ratio of the level of intensity of expression in log2 in two stages of differentiation), WD − FC	Abundance (%), D0	Level of intensity of expression in log2, D0	Abundance (%), D7	Level of intensity of expression in log2, D7	Abundance (%), FC	Level of intensity of expression in log2, FC	Abundance (%), WD	Level of intensity of expression in log2, WD	Level of intensity of expression in log2 At the differentiated stage (WD) measured in HTS
hsa-miR-449c: human miRNA, SEQ ID No. 201 (UAGGCAGUGUAUUGCUAGCGGCUGU; expressed or natural sequence; listed as Homo sapiens)	2.59 log2	7.44 log2	9.44 log2	−0.59 log2	0.00%	1.54 log2	0.00%	4.13 log2	0.32%	11.57 log2	0.20%	10.98 log2	10.98 log2
hsa-miR-1975: human miRNA, SEQ ID No. 15 (CCCCCACAACCGCGCUUGACUAGCU; expressed or natural sequence; listed as Homo sapiens)	2.13 log2	0.34 log2	2.93 log2	0.46 log2	0.48%	11.08 log2	2.09%	13.22 log2	2.56%	13.55 log2	2.67%	14.01 log2	11.22 log2
